Measurements: ChEMBL document CHEMBL3774347, “Docking and Linking of Fragments To Discover Jumonji Histone Demethylase Inhibitors” (J Med Chem, 2016)
pIC50: −log10 of the molar value. The source made the active and inactive calls. No cut-off for these calls is given here.

Experiments:
[1] = Induction of aggregates formation assessed as particle formation up to 10 uM by dynamic light scattering method
[2] = target: T1, Lysine-specific demethylase 4C (Homo sapiens, UniProt Q9H3R0); assay: (§1) Inhibition of N-terminal His6-tagged KDM4C (1 to 352 residues) (unknown origin) expressed in Escherichia coli Rosetta 2(DE3)pLysS using biotinylated histone H3 (1 to 21 residues) lysine 9 trimethylated peptide/2 uM alpha-ketoglutarate as substrate/cofactor measured after 45 mins by TR-FRET assay; conditions: for pIC50: read-out: IC50
T1 sequence (Q9H3R0 whole entry): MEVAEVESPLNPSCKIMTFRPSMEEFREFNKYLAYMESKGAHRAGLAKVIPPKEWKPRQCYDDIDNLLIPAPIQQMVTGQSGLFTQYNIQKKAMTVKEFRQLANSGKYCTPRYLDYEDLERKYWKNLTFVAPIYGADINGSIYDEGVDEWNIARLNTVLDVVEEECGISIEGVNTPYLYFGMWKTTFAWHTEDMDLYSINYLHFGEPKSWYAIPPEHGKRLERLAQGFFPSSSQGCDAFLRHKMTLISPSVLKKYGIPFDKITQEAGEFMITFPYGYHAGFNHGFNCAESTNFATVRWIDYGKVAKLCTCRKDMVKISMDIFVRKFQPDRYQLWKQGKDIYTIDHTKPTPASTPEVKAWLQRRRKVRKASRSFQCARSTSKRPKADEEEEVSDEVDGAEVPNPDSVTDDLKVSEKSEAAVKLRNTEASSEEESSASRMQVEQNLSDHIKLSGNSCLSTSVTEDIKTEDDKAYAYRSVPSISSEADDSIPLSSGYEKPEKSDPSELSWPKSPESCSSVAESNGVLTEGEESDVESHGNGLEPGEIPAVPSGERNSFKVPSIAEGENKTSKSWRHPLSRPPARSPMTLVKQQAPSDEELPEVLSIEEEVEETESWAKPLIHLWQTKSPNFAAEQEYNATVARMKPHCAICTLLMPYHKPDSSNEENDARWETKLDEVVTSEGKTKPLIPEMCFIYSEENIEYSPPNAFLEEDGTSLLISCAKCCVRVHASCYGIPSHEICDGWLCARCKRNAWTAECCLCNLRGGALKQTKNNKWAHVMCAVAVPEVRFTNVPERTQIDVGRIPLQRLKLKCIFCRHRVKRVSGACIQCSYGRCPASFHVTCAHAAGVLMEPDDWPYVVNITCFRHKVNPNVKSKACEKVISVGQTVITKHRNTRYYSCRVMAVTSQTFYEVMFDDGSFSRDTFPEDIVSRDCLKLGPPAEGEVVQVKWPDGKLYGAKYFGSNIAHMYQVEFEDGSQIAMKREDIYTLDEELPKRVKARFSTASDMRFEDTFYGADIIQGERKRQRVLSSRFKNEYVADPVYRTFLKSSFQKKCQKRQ

[3] = target: T1, Lysine-specific demethylase 4C; assay: Inhibition of N-terminal His6-tagged KDM4C (1 to 352 residues) (unknown origin) expressed in Escherichia coli Rosetta 2(DE3)pLysS using biotinylated histone H3 (1 to 21 residues) lysine 9 trimethylated peptide/50 uM alpha-ketoglutarate as substrate/cofactor measured after 45 mins by TR-FRET assay; conditions: for pIC50: read-out: IC50
[4] = target: T2, Lysine-specific demethylase 4C (Homo sapiens) (UniProt Q9H3R0); assay: as §1
T2 sequence (whole entry): T1 sequence (Q9H3R0 whole entry)

[5] = Inhibition of AmpC beta-lactamase (unknown origin)
[6] = target: T2, Lysine-specific demethylase 4C (Homo sapiens); assay: Binding affinity to N-terminal His6-tagged KDM4C (1 to 352 residues) (unknown origin) expressed in Escherichia coli Rosetta 2(DE3)pLysS at 1.7 mM by SYPRO Orange dye based thermal shift assay

SMILES	pIC50 [2]	further results
Cn1nccc1CNc1ccc(O)c(C(=O)O)c1	4.24	Activity [1]: inactive
O=C(O)c1ccnc(-c2cc(NC(=O)c3ccno3)ccc2O)c1	5.99	–
O=C(Cc1ccccc1)Nc1ccc(O)c(-c2cc(C(=O)O)ccn2)c1	6.37	pIC50 [3]: 4.77
O=C(Cc1cccc(Br)c1)Nc1ccc(O)c(-c2cc(C(=O)O)ccn2)c1	6.77	pIC50 [3]: 5.47
Cc1cc(O)c2c(CC(=O)O)cc(=O)oc2c1	3.75	–
O=C(O)c1cc(NCc2cccc3c2OCO3)ccc1O	4.82	–
Cn1nccc1CNc1ccc(O)c(-c2cc(C(=O)O)ccn2)c1	6.11	–
COCC(=O)Nc1ccc(O)c(C(=O)O)c1	4.01	Activity [1]: inactive
C[C@@H](NC(=O)c1cc(Cl)ccn1)C(=O)O	2.92	–
N#Cc1ccc(O)c(-c2cc(C(=O)O)ccn2)c1	5.22	–
O=C(O)c1ccnc(-c2cc(NCc3ccc(Br)cc3)ccc2O)c1	5.60	–
O=C(O)c1ccnc(-c2cc(NCc3cccc4c3OCO4)ccc2O)c1	6.25	–
COc1ccc(N)cc1-c1cc(C(=O)O)ccn1	3.51	–
O=C(O)c1ccnc(-c2cc(NC(=O)c3ccccc3O)ccc2O)c1	5.34	–
NC(=O)N[C@@H](Cc1c[nH]c2ccccc12)C(=O)O	4.73	–
CC(=O)Nc1ccc(O)c(-c2ccccn2)c1	–	IC50 [3]: Not Active; IC50 [2]: Not Active
O=C(O)CNC(=O)c1ccc2ccccc2n1	2.55	–
NC(=O)N[C@H](Cc1c[nH]c2ccccc12)C(=O)O	4.26	–
O=C(O)[C@@H]1CC(=O)N(c2nccs2)C1	3.17	–
CC(=O)c1ccccc1-c1cc(C(=O)O)ccn1	3.29	–
CCNC(=S)Nc1ccc(O)c(C(=O)O)c1	3.78	–
O=C(O)c1ccnc(-c2cc(NC(=O)c3cccc(O)c3)ccc2O)c1	6.34	–
O=C(O)Cn1nnnc1COc1ccccc1	2.63	–
CC(=O)Nc1ccc(O)c(C(=O)O)c1	–	inhibition [4]: inactive
CN1CCN(C(=O)c2ccn(CC(=O)O)n2)CC1	3.41	–
Nc1ccc(O)c(-c2cc(C(=O)O)ccn2)c1	5.08	–
CCCNC(=O)NC(C)(C)C(=O)O	3.90	–
COc1ccc(CC(=O)Nc2ccc(O)c(-c3cc(C(=O)O)ccn3)c2)cc1	7.16	pIC50 [3]: 5.43
Cc1ccccc1CNc1ccc(O)c(C(=O)O)c1	–	inhibition [5]: inactive; Activity [6]: Active
CC(=O)N[C@@H](CCC(=O)O)C(=O)O	2.68	–
